Test [1] deals with diabetic mouse (DM) model. Description: Retinal vascular permeability in diabetic mouse (DM) model, FITC-dextran. The format is in vivo, C57/BL6 mouse. Conditions: streptozotocin diabetic mouse, 10 μg into the vitreous body, 24 hours. As for the experimental part:
10 μg of Sac0601 or 10 μg of Sac0504 was injected into the vitreous body of one eye of a diabetic mouse. 24 hours after the injection, 100 μL of FITC-dextran (30 mg/mL in filtered […]) was injected into the left ventricle. Then, the retina was observed under an optical microscope (FIG. 11a) and the fluorescence intensity was quantified (FIG. 11b).
For in vivo analysis of the effect of the synthesized Rk1 derivatives on increased vascular permeability in diabetic retinopathy, a diabetic mouse (DM) model was made by injecting streptozotocin to C57/BL6 mouse. Sac 0601 or Sac 0504 (10 μg) was injected into the vitreous body of the mouse. 24 hours later, 40-kDa FITC-dextran (30 mg/mL in PBS, Sigma) was injected into the left ventricle. After waiting for about 2 minutes for circulation of the tracer, the eyes were taken out and fixed immediately in 4% PFA. Then, the retina was taken out and observed under an optical microscope.

Test [2] deals with HRECs. Nature of the test: VEGF-induced actin stress fibers in HRECs, rhodamine phalloidin staining. The format is cell-based, human. The settings on record: 10 μg/mL 1 hour, then 20 ng/mL VEGF 1 hour. As for the experimental part: Confluent HRECs were treated with 10 μg/mL Sac0601 or Sac0504 for 1 hour and then with 20 ng/mL VEGF for 1 hour. Subsequently, the cells were fixed at room temperature for 20 minutes with 4% paraformaldehyde and washed 3 times with PBS (pH 7.4). Then, the cells were permeabilized with 0.1% Triton X-100/PBS and reacted with 0.1 mg/mL rhodamine phalloidin (Molecular Probes) for 1 hour. Then, the cells were observed under a fluorescence microscope (Olympus). […] The analysis of actin cytoskeleton was conducted also for the compounds synthesized in Synthesis Example 5. Both Sac0904 and Sac0902 exerted effects in a concentration-dependent manner on the actin cytoskeleton which is closely related with vascular permeability (FIG. 7c).

Test [3] deals with human umbilical vein endothelial cells (HUVECs). Nature of the test: Serum depletion-induced apoptosis of HUVECs, MTT assay and cell morphology. The test is classed as cell-based. Conditions: serum-free medium, 5 or 10 μg/mL, 24 and 48 hours. As for the experimental part:
FIGS. 1a-1b and FIGS. 2a-2d show the result of screening Rk1 analogs that protect human umbilical vein endothelial cells (HUVECs) from serum depletion-induced apoptosis. HUVECs (3×10^5 cells/well) were seeded on a 24-well plate in M199 medium containing 20% fetal bovine serum. The next day, the cells were transferred to a medium containing 5 μg/mL (FIG. 1a) or 10 μg/mL (FIG. 1b) of the synthesized compound. Cell viability was determined by MIT assay 24 hours and 48 hours later. FIGS. 2a-2d show the result of observing cell morphologies. […]
Based on the previous researches performed by the inventors, the synthesized derivatives of Rk1 having steroid backbone and having the ability of inhibiting apoptosis of vascular endothelial cells and inhibiting permeability were screened. First, the ability of inhibiting apoptosis of vascular endothelial cells was measured. […] The next day, the cells were transferred to serum-free 11199 medium containing 5 μg/mL (FIG. 1a) or 10 μg/mL (FIG. 1b) of the compound synthesized in Synthesis Example 1-4, Cell viability was determined by MTT assay (Mosmann T, Journal of ImmunalogiCal Methods 65(1-2): 55-63 (1983); Cory A H, et al., Cancer Communications 3(7): 207-12 (1991)) 24 hours and 48 hours later.
(In general: Formazan colour is commonly taken as a measure of viable cells.)

The test system of test [4] is HRECs. Description: Restoration of TJ instability and cytoskeleton change induced by VEGF in HRECs. Conditions: 20 ng/mL VEGF 1 hour, then 10 μg/mL 1 hour. The format is cell-based, human. As for the experimental part:
In FIGS. 9a-9b, confluent HRECs were stimulated with 20 ng/mL VEGF (1 hr) before treating with Sac0504 and Sac0601. The cells were then stained with anti-occludin antibody (FIG. 9a) and rhodamine phalloidin (FIG. 9b).
Confluent HRECs were treated with 20 ng/mL. VEGF for 1 hour and then with 10 μg/mL Sac0601 or Sac0504 for 1 hour. Subsequently, the cells were stained with anti-occludin antibody (FIG. 9a) or […] (FIG. 9b) as described above.

The test system of test [5] is HRECs. Nature of the test: DNA fragmentation in serum-depleted HRECs. The test is classed as cell-based, human. The settings on record: serum-free medium, 0.1-10 μg/mL, 48 hours. As for the experimental part:
HRECs (3×10^4 cells/well) were seeded on a 24-well plate in M199 medium containing 20% fetal bovine serum. The next day, the cells were transferred to a medium containing 0.1-10 μg/mL Sac0601 (FIG. 6a) or 0.1-10 μg/mL Sac0504 (FIG. 6b). DNA fragmentation was analyzed by TUNEL assay 48 hours later.
In addition, chromosomal fragmentation and nicking characteristic of apoptosis were monitored, HRECs (3×10^4 cells/well) were seeded on a 24-well plate in M199 medium (1 mL) containing 20% fetal bovine serum, Next day, the cells were transferred to serum-free M199 medium containing 0.1-10 μg/mL Sac0601 (FIG. 6a) or 0.1-10 μg/mL Sac0504 (FIG. 6b). 48 hours later, the cells were washed twice with PBS, fixed with 2% paraformaldehyde, and washed twice with PBS again, After adding 4′,6-diamidino-2-phenylindole-2HCl (DAPI; Calbiochem, USA) solution and reacting for 30 minutes in the dark, the cells were washed twice with PBS and degree of DNA fragmentation was observed under an optical microscope after covering with a cover glass.

From US8889840B2, “Vascular leakage inhibitor” (Industry-Academic Cooperation Foundation, Yonsei University, priority 2009, dated 2014) come the findings set out here.

Entries after “also recorded” stand apart in the source; their conditions may differ.

`CC(C)CCC[C@@H](C)[C@H]1CC[C@H]2[C@@H]3CC=C4C[C@@H](OC5CCCCO5)CC[C@]4(C)[C@H]3CC[C@]12C` (stereo partly drawn) [Sac0504]: in test [1], the “retinal vascular permeability induced in the DM” value is given as “partially inhibits; also recorded: only limitedly”. Moreover, in test [2], the “formation of actin stress fibers induced by VEGF” value was “inhibited the formation of actin stress fibers induced by VEGF” and the “formation of cortical actin ring structures” value is “increased the formation of cortical actin ring structures”. Also, the “ability of inhibiting apoptosis (cell viability by MTT assay)” value in test [3] was “comparable to that of Rk1”. For the same molecule, the “change in actin structure and TJ stability at the cell-cell contacts induced by VEGF” value in test [4] is on record as “can be restored”. In addition, in test [5], the DNA fragmentation result is “inhibit DNA fragmentation”.

As for `CC(=O)OCC1OC(OC2CCC3(C)C(=CCC4C3CCC3(C)C(C(C)CCCC(C)C)CCC43)C2)C=CC1OC(C)=O` (stereo not drawn) [Sac0601], the “retinal vascular permeability induced in the DM” value in test [1] is reported as “completely inhibits; also recorded: very effectively”. In addition, in test [2], the “formation of actin stress fibers induced by VEGF” value is reported as “inhibited the formation of actin stress fibers induced by VEGF” and the “formation of cortical actin ring structures” value is “increased the formation of cortical actin ring structures”. In addition, the “ability of inhibiting apoptosis (cell viability by MTT assay)” value in test [3] was “comparable to that of Rk1”. The “change in actin structure and TJ stability at the cell-cell contacts induced by VEGF” value in test [4] is “can be restored”. Also, the DNA fragmentation result in test [5] is on record as “inhibit DNA fragmentation”.
